Read-outs that look alike come from different tables or passages of the source.

This note sets out measurements from US4164571A, “Medicament which antagonizes the action of gastrin and related polypeptides” (Commissariat a l'Energie Atomique, priority 1976, dated 1979).

In one series the test system is mice. The note with it: for number of death cases: group of ten mice. From the text:
All the dead or surviving animals are autopsied, the stomach and the small intestine are examined for heamorrhages or ulcers.

Series [1] relates to stimulated secretion of gastric juice. Put plainly: stimulated gastric acid secretion in anaesthetised perfused rats (Ghosh and Schild, modified by Lai), intravenous injection. The format is in vivo, rat. As to conditions: for % inhibition of pentagastrin stimulated acid secretion / % inhibition of gastrin I stimulated acid secretion: i.v. Here is the method: A first series of experiments was carried out on male Wistar rats weighing 300 to 325 g. The procedure used was that of Ghosh and Schild, modified by Lai. The rats fasted for the 18 hours preceding the test. On the day of the test the rats were anaesthesized with urethane by the intraperitoneal route at a rate of 1.20 g of urethane per kilogramme. The rectal temperature was maintained at 34°±1° C. by means of an anal probe connected to a thermometer which electronically controlled the lighting up of a 100 Watt lamp positioned above each rat. An oesophageal probe (polyethylene catheter) was introduced up to the oesophagus--rumen junction of the rat and another catheter was introduced into the pyloric opening via the duodenum. The stomach was perfused with a solution of physiological serum introduced by means of the oesophageal tube at a constant speed of 1 ml/mn and was collected every ten minutes by the pyloroduodenal probe.
The rats prepared in this way were left to rest for a period of at least 45 minutes. The perfusate sampled every 10 minutes was then determined by means of a 0.01 N soda solution at pH 8.45, corresponding to a phenolphthalein colour change or at pH 7.4 with an automatic titration apparatus at constant pH.
After determining the basal acid secretion of the gastric juice on at least four consecutive samples a dose of gastrin was intravenously administered to the rats in the vein of the penis and subsequently the response to this stimulation was recorded until the secretion returned to the basal level over a period of at least twice 10 minutes. […] The results are expressed in microequivalents of hydrochloric acid per 40 minutes and are calculated as follows: either as the number of secreted microequivalents after stimulation less the number of microequivalents secreted in the 40 minutes prior to the injection of the dose, or as an acid peak, i.e., taking the average of the two consecutive maximum responses for each dose less the average value for the two basal values preceding the injection.
The transformation into double inverse makes it possible by analogy with enzymatic reactions to conclude whether the inhibition is of the competitive type or not.

Series [2] has the same test system. Briefly: gastric acid secretion in rats under continuous intravenous perfusion. It counts as in vivo, rat. The protocol:
In a second series of experiments an intravenous perfusion of an isotonic solution of […] sodium chloride was administered at a rate of 2.4 ml/h to rats prepared in the manner indicated hereinbefore according to the procedure of Ghosh and Schild, modified by Lai. This perfusion was administered to the vein of the penis.
The rats prepared in this manner were left at rest for at least 45 minutes, then the acidity was determined as hereinbefore on the gastric perfusate sampled every 10 minutes. […] At the end of the first hour a dose of gastrin I was added to the perfusion. The results obtained are given in FIG. 5a showing the variations of the gastric secretion as a function of time.

For the compound `CSCC[C@H](NC(=O)[C@H](Cc1c[nH]c2ccccc12)NC(=O)CCNC(=O)OC(C)(C)C)C(=O)N[C@@H](CC(=O)O)C(=O)N[C@@H](Cc1ccccc1)C(N)=O` [pentagastrin, Boc-Gly-Trp-Met-Asp-phe-NH2, reference compound], the “number of death cases” value in the series on mice (1280 μg/kg i.p., 2 h) is recorded as 1; in the series with mice (1280 μg/kg i.p., 6 h), 1; in the series with mice (2560 μg/kg i.p., 2 h), 2; in the series on mice (2560 μg/kg i.p., 48 h), 1. In addition, the “dose at which digestive hemorrhages are observed” value in the series on mice (i.p., importance increases with the dose) was at least 0.32 mg/kg. In addition, the “LD 50” value in the series with mice (i.p., logit-log paper) was “higher than 3.2 mg/kg”.
Take “Boc-Gly-Trp-(NPS)-Met-Aspe-Phe-NH2 [pentagastrin-NPS]”: in series [1] (pentagastrin-NPS associated with pentagastrin), the “inhibition of pentagastrin action” value was “inhibits the pentagastrin action”. For the same compound, the “% inhibition of pentagastrin stimulated acid secretion” value in series [1] (ratio pentagastrin-NPS/pentagastrin 1/1, 50 ng pentagastrin-NPS with 50 ng pentagastrin) is on record as 100%; in series [1] (ratio pentagastrin-NPS/pentagastrin 1/2, 50 ng pentagastrin-NPS with 100 ng pentagastrin), 100%; in series [1] (ratio pentagastrin-NPS/pentagastrin 1/3, 50 ng pentagastrin-NPS with 150 ng pentagastrin), 75%; in series [1] (ratio pentagastrin-NPS/pentagastrin 1/4, 50 ng pentagastrin-NPS with 200 ng pentagastrin), below 20%. The “number of death cases” value in the series with mice (1280 μg/kg i.p., 24 h) is 1; in the series with mice (2560 μg/kg i.p., 6 h) it was 1; with mice (2560 μg/kg i.p., 24 h), 1; in the series with mice (2560 μg/kg i.p., 48 h) it was 2. In the series with mice (2560 μg/kg i.p.), the “petechiae at autopsy” value is reported as “a few petechiae are observed”. In the series with mice (160 to 2560 μg/kg i.p.), the “digestive hemorrhage at autopsy” value is recorded as “does not lead to any digestive hemorrhage”. In addition, in the series with mice (i.p.), the “doses leading to no modifications (petechiae) of the stomach and of the intestine” value is listed as “under 2,5 mg/kg”.
In the case of “orthonitrophenyl sulphenylated gastrin I [gastrin I-NPS]”, in series [1] (100 or 200 ng gastrin I-NPS with each dose of gastrin I), the “type of inhibition of gastrin I response (double inverse representation)” value is on record as “inhibition is competitive”. The “% inhibition of gastrin I stimulated acid secretion” value in series [1] (ratio gastrin I-NPS/gastrin I 1/1, 50 ng gastrin NPS with 50 ng gastrin I) is 100%; in series [1] (ratio gastrin I-NPS/gastrin I 1/2, 50 ng gastrin NPS with 100 ng gastrin I), 75%; in series [1] (ratio gastrin I-NPS/gastrin I 1/3, 50 ng gastrin NPS with 150 ng gastrin I), 65%; in series [1] (ratio gastrin I-NPS/gastrin I 1/4, 50 ng gastrin NPS with 200 ng gastrin I), below 35%. Moreover, the “time until stimulated secretion plateau after introduction of gastrin I” value stood at 30 min in series [2] (100 ng/h gastrin I-NPS with 200 ng/h gastrin I, plateau at a lower level) and 40 min in series [2] (100 ng/h gastrin I-NPS with 400 ng/h gastrin I, plateau reaches the level of 100 ng/h gastrin I). For the same compound, the “secretory response to the substance alone” value in series [2] (100 ng/h in intravenous perfusion) was “causes no secretory response”.
